Key:
gamma-globin mRNA = conditions: 48 hours, data in the literature; cited from earlier work
[1] = test system: Salmonella typhimurium TA102; test: AMES test, mutagenic evaluation in Salmonella typhimurium TA102 strain with/without metabolic activation (S9); type: cell-based
Procedure: (§1) The procedure was firstly developed by (MARON, D. M. and AMES, B. N. Mut. Res. v. 113, pp. 173-215, 1983)
(§2) For this assay, Salmonella typhimurium TA100 and TA102 strains from the mutagenicity laboratory of the “Faculdade de Ciências Farmacêuticas—UNESP Araraquara” were used. Such strains have the following characteristics: (AMES, 1983)
(§3) The positive controls are mutagenic compounds specific for each strain and test condition, with 25 μL/plate of sodium azide (1.25 μg/plate) and 100 μL of mitomycin (0.5 μg/plate) being the controls for TA100 and TA102, respectively, in the absence of metabolic activation. For assays with metabolic activation, the positive control for TA100 is 50 μL 2-antramine (1.25 μg/plate) and for TA102 it is 50 μL 2-aminofluorene (1.25 μg/plate).
(§4) The preincubation method was used.
(§5) In laminar flow, Salmonella typhimurium (TA100 and TA 102) strains were inoculated individually with a platinum loop, in the respective nutrient broths and maintained at 37° C., under constant stirring (160 rpm) during 14 hours, in order to achieve a density of 1 to 2×10^9 bacteria/mL.
(§6) Different concentrations of the compounds were added into 100 μL of 0.2M phosphate buffer pH 7.4 (or 500 μL of the mixture S9 in metabolic activation assays) and incubated for 20-30 minutes at 37° C. Solutions containing the compounds had DMSO as the solvent. Thereafter, 2 mL of top agar supplemented with traces of histidine and biotin was added, homogenized and plated in glycosylated minimum medium. After solidification of the top agar, the plates were incubated for 48 hours at a 37° C. Then, the counting of the number of revertant colonies per plate was performed. All tested concentrations, positive and negative controls were run in triplicate.
(§7) After 48 hours, the revertant colonies were counted manually, and the protoCOL Colony Counter Version 3.15.630 (1998-2001) SYNBIOSIS LTD system was used for the positive control.
(§8) The final data obtained from the assay was analyzed using the statistical software Salanal (Salmonella Assay Analysis) version 1.0 from the Research Triangle Institute, RTP, North Carolina, USA. Such software allows the dose-response effect to be evaluated by means of analysis of variance (ANOVA-test F) computations between the measurement of the number of revertants at the different tested concentrations (doses) and the negative control, followed by a linear regression. The software model chosen for analyzing the data was Bernstein's (BERNSTEIN, L. et al. Mutat. Res. v. 97, p. 267-281, 1982). The slope of the straight line from the linear portion of the dose-response curve is also provided by this software and corresponds to the number of revertants induced per measurement unit of the analyzed sample.
(§9) From the results, the mutagenicity ratio (MR) was computed for each analyzed dose from each compound. MR is given by the following equation:
(§10) MR=average number of revertants per test plate (spontaneous+induced revertants) […] average number of revertants per plate of the negative control (spontaneous revertants)
(§11) The spontaneous growing means that the number of revertants which developed on the plate, regardless of being induced or not, wherein values higher or equal to 2 are considered as a positive response (VALENT, G. V. et al. Env. Toxicol. Water Quality. v. 8, p. 371-381, 1993).
(§12) The mutagenicity test with metabolic activation system was performed with a microsomal fraction S9 (S9 mix) prepared from a liver homogenizate from Sprague Dawley rats, previously treated with Aroclor 1254, acquired in the freeze-dried form.
(§13) The procedure for this assay is the same, however, instead of the buffer, 500 μL of the S9 mixture should be added.
(§14) The S9 mixture has a viability of 4 hours from preparation when put on ice. The plates are then incubated for 48 hours at 37° C. After the required time has elapsed, the counting of the revertant colonies was carried out. All tested concentrations, positive and negative controls were run in triplicate.

[2] = test system: Salmonella typhimurium TA100; test: AMES test, mutagenic evaluation in Salmonella typhimurium TA100 strain with/without metabolic activation (S9); type: cell-based
Procedure: as §1, §2, §3, §4, §5, §6, §7, §8, §9, §10, §11, §12, §13, §14

[3] = test system: leukocyte infiltration, peritonitis induced by thioglycolate; test: Peritonitis assay induced by 3% thioglycolate; type: in vivo; conditions: 300 μMol/Kg orally, mouse, 3% thioglycolate i.p., 4 h
Procedure: In a second assay, the number of total leukocytes (10^6/mL) was evaluated in order to evaluate the ability to inhibit their infiltration in the inflammatory process.
The mice were treated with the substances being analyzed or carrier and after 1 h of oral administration, they were simultaneously subjected to the peritonitis assay, by administering intraperitoneally 1 ml of a 3% thioglycolate solution. 4 h after the administration of thioglycolate, the peritoneal cavity was washed with 3 ml of a HANKS solution (Balanced salt solution, free of Ca^2+ and Mg^2+). Next, the peritoneal wash was analyzed and the total counting of white blood cells was made in a Newbauer's chamber under an optical microscope with a 40× objective.

**Q.** With `NC(=O)NO` [HU, Hydroxyurea] as the molecule, how does the “concentration producing comparable activity on gamma-globin expression” value (gamma-globin mRNA) read?
**A.** Its value is 10 µM.

**Q.** What does the source list for `O=C1c2ccccc2C(=O)N1c1cccc(CO[N+](=O)[O-])c1` [Compound IC, 3-(1,3-dioxo-1,3-dihydro-2H-isoindol-2-yl)benzyl nitrate]?
**A.** mutagenicity ratio (MR) ([1]; TA 102, +S9, 0.224 μmol/plate): 0.73; number of revertants per plate ([1]; TA 102, +S9, 0.224 μmol/plate): 272 ± 26 revertants/plate; mutagenicity ratio (MR) ([1]; TA 102, +S9, 0.488 μmol/plate): 1.01; number of revertants per plate ([1]; TA 102, +S9, 0.488 μmol/plate): 378 ± 6.1 revertants/plate; mutagenicity ratio (MR) ([1]; TA 102, +S9, 0.896 μmol/plate): 1.09; number of revertants per plate ([1]; TA 102, +S9, 0.896 μmol/plate): 405 ± 11 revertants/plate; mutagenicity ratio (MR) ([1]; TA 102, +S9, 1.8 μmol/plate): 1.07; number of revertants per plate ([1]; TA 102, +S9, 1.8 μmol/plate): 399.3 ± 40 revertants/plate; mutagenicity ratio (MR) ([1]; TA 102, +S9, 3.58 μmol/plate): 1.15; number of revertants per plate ([1]; TA 102, +S9, 3.58 μmol/plate): 431 ± 17.9 revertants/plate; mutagenicity ratio (MR) ([1]; TA 102, −S9, 0.224 μmol/plate): 1.10; number of revertants per plate ([1]; TA 102, −S9, 0.224 μmol/plate): 281 ± 25 revertants/plate; mutagenicity ratio (MR) ([1]; TA 102, −S9, 0.488 μmol/plate): 1.12; number of revertants per plate ([1]; TA 102, −S9, 0.488 μmol/plate): 286 ± 4.2 revertants/plate; mutagenicity ratio (MR) ([1]; TA 102, −S9, 0.896 μmol/plate): 1.19; number of revertants per plate ([1]; TA 102, −S9, 0.896 μmol/plate): 303 ± 9.2 revertants/plate; mutagenicity ratio (MR) ([1]; TA 102, −S9, 1.8 μmol/plate): 1.55; number of revertants per plate ([1]; TA 102, −S9, 1.8 μmol/plate): 395.7 ± 9 revertants/plate; mutagenicity ratio (MR) ([1]; TA 102, −S9, 3.58 μmol/plate): 1.52; number of revertants per plate ([1]; TA 102, −S9, 3.58 μmol/plate): 387 ± 9.7 revertants/plate; mutagenicity ratio (MR) ([2]; TA 100, +S9, 0.224 μmol/plate): 1.27; number of revertants per plate ([2]; TA 100, +S9, 0.224 μmol/plate): 165 ± 13.2 revertants/plate; mutagenicity ratio (MR) ([2]; TA 100, +S9, 0.488 μmol/plate): 1.18; number of revertants per plate ([2]; TA 100, +S9, 0.488 μmol/plate): 153 ± 13.1 revertants/plate; mutagenicity ratio (MR) ([2]; TA 100, +S9, 0.896 μmol/plate): 1.12; number of revertants per plate ([2]; TA 100, +S9, 0.896 μmol/plate): 146 ± 5 revertants/plate; mutagenicity ratio (MR) ([2]; TA 100, +S9, 1.8 μmol/plate): 1.26; number of revertants per plate ([2]; TA 100, +S9, 1.8 μmol/plate): 163 ± 22.5 revertants/plate; mutagenicity ratio (MR) ([2]; TA 100, +S9, 3.58 μmol/plate): 1.22; number of revertants per plate ([2]; TA 100, +S9, 3.58 μmol/plate): 158.3 ± 9.3 revertants/plate; mutagenicity ratio (MR) ([2]; TA 100, −S9, 0.224 μmol/plate): 1.21; number of revertants per plate ([2]; TA 100, −S9, 0.224 μmol/plate): 216.7 ± 10.2 revertants/plate; mutagenicity ratio (MR) ([2]; TA 100, −S9, 0.488 μmol/plate): 1.25; number of revertants per plate ([2]; TA 100, −S9, 0.488 μmol/plate): 224.5 ± 24.6 revertants/plate; mutagenicity ratio (MR) ([2]; TA 100, −S9, 0.896 μmol/plate): 1.48; number of revertants per plate ([2]; TA 100, −S9, 0.896 μmol/plate): 266.3 ± 8.4 revertants/plate; mutagenicity ratio (MR) ([2]; TA 100, −S9, 1.8 μmol/plate): 1.34; number of revertants per plate ([2]; TA 100, −S9, 1.8 μmol/plate): 239.7 ± 11.3 revertants/plate; mutagenicity ratio (MR) ([2]; TA 100, −S9, 3.58 μmol/plate): 1.8; number of revertants per plate ([2]; TA 100, −S9, 3.58 μmol/plate): 323.7 ± 10.2 revertants/plate; mutagenicity (AMES test, overall) ([2]; TA100 and TA102, with and without S9, at the concentrations used): did not show mutagenicity; Cell Number avg (×106), total leukocytes [3]: 3.2 ×106; Inhibition % (leukocyte infiltrate) [3]: 42.85%

Reference: US8314255B2, “Use of phthalimide and/or sulphonamide derivatives in the treatment of diseases which require reducing the TNF- α levels and an exogenous source of nitric oxide, phthalimide derivatives, sulphonamide derivatives, and a method for obtaining a sulphonamide derivative” (priority 2007, dated 2012)
